What was measured:
[1] = test system: various plants; assay: Example 1: pot test, foliar treatment, visually observed growth inhibition of other sown plants (Tables 5-1 to 5-137); format: in vivo; conditions: for Growth inhibition rate (%) of ivyleaf morningglory, Measured value: ivyleaf morningglory 1.5 to 2.1 leaf stage; for Growth inhibition rate (%) of prickly sida, Measured value: prickly sida 2.1 to 3.1 leaf stage, 20th day after application
Excerpt: When the herbicidal activity in a case where two active ingredients are combined, is larger than the simple sum of the respective herbicidal activities of the two active ingredients (the expected activity), it is called a synergistic effect. The activity expected by the combination of two active ingredients can be calculated as follows (Colby S. R., “Weed”, vol. 15, p. 20-22, 1967). E=α+β−(α×β+100) where
α: growth inhibition rate when treated with x (g/ha) of herbicide X,
β: growth inhibition rate when treated with y (g/ha) of herbicide Y,
E: growth inhibition rate expected when treated with x (g/ha) of herbicide X and y (g/ha) of herbicide Y.
That is, when the actual growth inhibition rate (measured value) is larger than the growth inhibition rate by the above calculation (calculated value), the activity by the combination can be regarded as showing a synergistic effect.
Upland field soil was put into a 1/1,000,000 hectare pot, and seeds of various plants were sown. When the respective plants reached predetermined leaf stage, herbicidal compositions in predetermined amounts were diluted with water in an amount corresponding to 300 L/ha and applied for foliar treatment by a small sprayer.
On the 14th to 28th day after application, the state of growth of the respective plants was visually observed to determine the growth inhibition rate (measured value) in accordance with the following evaluation standard. Further, in accordance with the above Colby's formula, the growth inhibition rate (calculated value) was calculated. In Tables, with respect to the compound A, Compound Nos. in Table 1 or 3 are described, and with respect to other herbicidal compounds, common names are described.

[2] = test system: velvetleaf; assay: Example 1: pot test, foliar treatment, visually observed growth inhibition of velvetleaf; format: in vivo, Abutilon theophrasti MEDIC.
[3] = test system: crabgrass; assay: Example 1: pot test, foliar treatment, visually observed growth inhibition of crabgrass; format: in vivo
[4] = 3.2 to 4.3 leaf stage, 21st day after application, 15 g/ha

For `COCCOc1c(S(C)(=O)=O)ccc(C(=O)c2cnn(C)c2OC(=O)SC(C)(C)C)c1C` [No. 241], the “Growth inhibition rate (%) of ivyleaf morningglory, Measured value” ([1]; 14th day after application, 75 g/ha) was 88%, the “Growth inhibition rate (%) of ivyleaf morningglory, Measured value” ([1]; 23rd day after application, 100 g/ha) was 85% and the “Growth inhibition rate (%) of prickly sida, Measured value” ([1]; 50 g/ha) was 60%. For the same compound, the “Growth inhibition rate (%) of prickly sida, Measured value” ([1]; 100 g/ha) was 60%, the “Growth inhibition rate (%) of velvetleaf, Measured value” ([2]; 2.5 to 3.3 leaf stage, 21st day after application, 7 g/ha) was 65% and the “Growth inhibition rate (%) of velvetleaf, Measured value” ([2]; 2.5 to 3.3 leaf stage, 21st day after application, 15 g/ha) was 80%. The “Growth inhibition rate (%) of velvetleaf, Measured value” ([2]; 2.6 to 3.3 leaf stage, 20th day after application, 7 g/ha) was 70%, the “Growth inhibition rate (%) of velvetleaf, Measured value” ([2]; 2.8 to 3.6 leaf stage, 24th day after application, 3.75 g/ha) was 45% and the “Growth inhibition rate (%) of velvetleaf, Measured value” ([2]; 3.0 to 4.0 leaf stage, 21st day after application, 7 g/ha) was 60%. The “Growth inhibition rate (%) of velvetleaf, Measured value” ([2]; 3.0 to 4.0 leaf stage, 21st day after application, 15 g/ha) was 80%, the “Growth inhibition rate (%) of velvetleaf, Measured value” [2, 4] was 85% and the “Growth inhibition rate (%) of velvetleaf, Measured value” ([2]; 3.3 to 4.3 leaf stage, 20th day after application, 3.75 g/ha) was 45%. For the same compound, the “Growth inhibition rate (%) of velvetleaf, Measured value” ([2]; 3.3 to 4.3 leaf stage, 20th day after application, 15 g/ha) was 80%, the “Growth inhibition rate (%) of velvetleaf, Measured value” ([2]; 4.0 to 4.4 leaf stage, 22nd day after application, 15 g/ha) was 97% and the “Growth inhibition rate (%) of crabgrass, Measured value” ([3]; 3.1 to 4.0 leaf stage, 22nd day after application, 15 g/ha) was 90%. The “Growth inhibition rate (%) of crabgrass, Measured value” ([3]; 3.2 to 4.1 leaf stage, 14th day after application, 15 g/ha) was 94%, the “Growth inhibition rate (%) of crabgrass, Measured value” ([3]; 3.2 to 4.1 leaf stage, 21st day after application, 7 g/ha) was 80% and the “Growth inhibition rate (%) of crabgrass, Measured value” ([3]; 3.2 to 4.1 leaf stage, 21st day after application, 15 g/ha) was 93%. The “Growth inhibition rate (%) of crabgrass, Measured value” ([3]; 3.2 to 4.3 leaf stage, 14th day after application, 15 g/ha) was 93%, the “Growth inhibition rate (%) of crabgrass, Measured value” [3, 4] was 88% and the “Growth inhibition rate (%) of crabgrass, Measured value” ([3]; 3.3 to 4.2 leaf stage, 24th day after application, 15 g/ha) was 75%. The “Growth inhibition rate (%) of crabgrass, Measured value” ([3]; 3.5 to 4.2 leaf stage, 14th day after application, 15 g/ha) was 90%, the “Growth inhibition rate (%) of crabgrass, Measured value” ([3]; 3.5 to 4.2 leaf stage, 20th day after application, 1.875 g/ha) was 30% and the “Growth inhibition rate (%) of crabgrass, Measured value” ([3]; 3.5 to 4.2 leaf stage, 20th day after application, 3.75 g/ha) was 68%. The “Growth inhibition rate (%) of crabgrass, Measured value” ([3]; 3.7 to 4.6 leaf stage, 21st day after application, 7 g/ha) was 80%, the “Growth inhibition rate (%) of crabgrass, Measured value” ([3]; 3.7 to 4.6 leaf stage, 21st day after application, 15 g/ha) was 94% and the “Growth inhibition rate (%) of crabgrass, Measured value” ([3]; 4.0 to 5.0 leaf stage, 21st day after application, 7 g/ha) was 60%. For the same compound, the “Growth inhibition rate (%) of crabgrass, Measured value” ([3]; 4.0 to 5.0 leaf stage, 21st day after application, 15 g/ha) was 80%.

Reference: patent publication US8466088B2, “Herbicidal compositions containing benzoylpyrazole compounds” (Ishihara Sangyo Kaisha, Ltd., priority 2007, dated 2013)
